Test results reported in the NIST ThermoML archive (doi:10.1021/je600568w).

How the values were obtained:
[1] = xn = mol fraction of the nth substance listed; conditions: 101 kPa, Liquid; for viscosity: Capillary tube (Ostwald / Ubbelohde) method
[2] = 101 kPa, Liquid; for viscosity: Capillary tube (Ostwald / Ubbelohde) method

CCOC(=O)C(C)O (stereo not drawn) [DL-ethyl lactate] + C=C(C)C(=O)O
[1], x1 = 1
Conditions | mass density [kg/m3] | viscosity [mPa·s]
298.15 K | 1029.1 | 2.398
308.15 K | 1018.7 | 1.863
318.15 K | 1007.5 | 1.494

CCOC(=O)C(C)O (stereo not drawn) [DL-ethyl lactate] + C=C(C)C(=O)OCCO
[1], x1 = 1
Conditions | mass density [kg/m3] | viscosity [mPa·s]
298.15 K | 1029.1 | 2.398
308.15 K | 1018.7 | 1.863
318.15 K | 1007.5 | 1.494

C=C(C)C(=O)OCCO [2-hydroxyethyl 2-methyl-2-propenoate]
[2]
Conditions | mass density [kg/m3] | viscosity [mPa·s]
298.15 K | 1067.1 | 5.784
308.15 K | 1057.7 | 4.194
318.15 K | 1048.6 | 3.181

C=C(C)C(=O)OCc1ccccc1 [benzyl methacrylate] + CCOC(=O)C(C)O
[1]
Conditions | mass density, 298.15 K [kg/m3] | mass density, 308.15 K [kg/m3] | mass density, 318.15 K [kg/m3] | viscosity, 298.15 K [mPa·s] | viscosity, 308.15 K [mPa·s] | viscosity, 318.15 K [mPa·s]
x2 = 0 | 1034.7 | 1025.8 | 1017 | 2.302 | 1.885 | 1.58
x2 = 0.1 | 1033.7 | 1024.3 | 1015.1 | 2.219 | 1.832 | 1.53
x2 = 0.1999 | 1032.7 | 1023.3 | 1013.9 | 2.166 | 1.8 | 1.493
x2 = 0.3 | 1032.1 | 1022.6 | 1012.9 | 2.153 | 1.77 | 1.458
x2 = 0.4 | 1031.6 | 1021.9 | 1012.1 | 2.149 | 1.753 | 1.437
x2 = 0.5 | 1031.1 | 1021.2 | 1011.2 | 2.161 | 1.749 | 1.426
x2 = 0.6 | 1030.7 | 1020.6 | 1010.4 | 2.179 | 1.753 | 1.426
x2 = 0.7 | 1030.2 | 1020 | 1009.5 | 2.209 | 1.761 | 1.431
x2 = 0.7999 | 1029.8 | 1019.4 | 1008.7 | 2.25 | 1.782 | 1.447
x2 = 0.9 | 1029.4 | 1018.9 | 1008 | 2.303 | 1.807 | 1.464

CCOC(=O)C(C)O (racemic) [DL-ethyl lactate]
[2]
Conditions | mass density [kg/m3] | viscosity [mPa·s]
298.15 K | 1029.1 | 2.398
308.15 K | 1018.7 | 1.863
318.15 K | 1007.5 | 1.494
